This is an account of results in the NIST ThermoML archive (doi:10.1016/j.jct.2015.02.024).

Structures are written as SMILES. ± gives the expanded uncertainty stated by the source.

This data set can be described thus: activity coefficient (dimensionless); of the first substance listed, at infinite dilution; xn = mol fraction of the nth substance listed. The conditions noted are these: 101 kPa, Liquid, Chromatography, x1 = 0.

As to `CC(C)=O` [acetone] + C[N+]1(CCCO)CCOCC1.O=S(=O)([N-]S(=O)(=O)C(F)(F)F)C(F)(F)F, the activity coefficient is, setting by setting: (318.15 K) 0.486 ± 0.037; (328.15 K) 0.517 ± 0.039; (338.15 K) 0.543 ± 0.04; (348.15 K) 0.572 ± 0.041; (358.15 K) 0.596 ± 0.042; (368.15 K) 0.63 ± 0.04.

Take `CC#N` [acetonitrile] + C[N+]1(CCCO)CCOCC1.O=S(=O)([N-]S(=O)(=O)C(F)(F)F)C(F)(F)F: the activity coefficient (318.15 K) turned out to be 0.479 ± 0.037; the activity coefficient (328.15 K) stood at 0.495 ± 0.038; the activity coefficient (338.15 K) was 0.513 ± 0.038; the activity coefficient (348.15 K) worked out at 0.528 ± 0.039; the activity coefficient (358.15 K) was found to be 0.545 ± 0.04; the activity coefficient (368.15 K) stood at 0.561 ± 0.04.

For `c1ccccc1` [benzene] + C[N+]1(CCCO)CCOCC1.O=S(=O)([N-]S(=O)(=O)C(F)(F)F)C(F)(F)F, the activity coefficient by setting is: (318.15 K) 2.53 ± 0.17; (328.15 K) 2.56 ± 0.17; (338.15 K) 2.58 ± 0.18; (348.15 K) 2.6 ± 0.18; (358.15 K) 2.63 ± 0.18; (368.15 K) 2.65 ± 0.18.

Turning to `CCCCO` [butan-1-ol] + C[N+]1(CCCO)CCOCC1.O=S(=O)([N-]S(=O)(=O)C(F)(F)F)C(F)(F)F, the activity coefficient (318.15 K) stood at 3.23 ± 0.22; the activity coefficient (328.15 K) stood at 3.07 ± 0.21; the activity coefficient (338.15 K) was determined as 2.96 ± 0.2; the activity coefficient (348.15 K) is 2.84 ± 0.19; the activity coefficient (358.15 K) was determined as 2.73 ± 0.19; the activity coefficient (368.15 K) worked out at 2.64 ± 0.18.

With `CCC(C)O` (stereo unspecified) [butan-2-ol] + C[N+]1(CCCO)CCOCC1.O=S(=O)([N-]S(=O)(=O)C(F)(F)F)C(F)(F)F, the activity coefficient is, setting by setting: (318.15 K) 2.59 ± 0.18; (328.15 K) 2.52 ± 0.17; (338.15 K) 2.46 ± 0.17; (348.15 K) 2.4 ± 0.16; (358.15 K) 2.34 ± 0.16; (368.15 K) 2.29 ± 0.16.

As for `CCCC=O` [butanal] + C[N+]1(CCCO)CCOCC1.O=S(=O)([N-]S(=O)(=O)C(F)(F)F)C(F)(F)F, the activity coefficient by setting is: (318.15 K) 1.37 ± 0.09; (328.15 K) 1.4 ± 0.09; (338.15 K) 1.43 ± 0.09; (348.15 K) 1.45 ± 0.1; (358.15 K) 1.48 ± 0.1; (368.15 K) 1.5 ± 0.1.

On to `C1CCCCCC1` [cycloheptane] + C[N+]1(CCCO)CCOCC1.O=S(=O)([N-]S(=O)(=O)C(F)(F)F)C(F)(F)F, for which the activity coefficient reads like this: (318.15 K) 82.8 ± 5.7; (328.15 K) 71 ± 4.9; (338.15 K) 62.6 ± 4.3; (348.15 K) 54.5 ± 3.7; (358.15 K) 47.2 ± 3.2; (368.15 K) 43 ± 2.9.

`C1CCCCC1` [cyclohexane] + C[N+]1(CCCO)CCOCC1.O=S(=O)([N-]S(=O)(=O)C(F)(F)F)C(F)(F)F: the activity coefficient (318.15 K) turned out to be 66 ± 4.5; the activity coefficient (328.15 K) was 55.7 ± 3.8; the activity coefficient (338.15 K) was 48.3 ± 3.3; the activity coefficient (348.15 K) is 42.2 ± 2.9; the activity coefficient (358.15 K) was 36.3 ± 2.5; the activity coefficient (368.15 K) was found to be 32.2 ± 2.2.

Turning to `C1=CCCCC1` [cyclohexene] + C[N+]1(CCCO)CCOCC1.O=S(=O)([N-]S(=O)(=O)C(F)(F)F)C(F)(F)F, the activity coefficient runs as follows: (318.15 K) 23.7 ± 1.6; (328.15 K) 21.6 ± 1.5; (338.15 K) 20.2 ± 1.4; (348.15 K) 18.6 ± 1.3; (358.15 K) 17.1 ± 1.2; (368.15 K) 16.2 ± 1.1.

`C1CCCCCCC1` [cyclooctane] + C[N+]1(CCCO)CCOCC1.O=S(=O)([N-]S(=O)(=O)C(F)(F)F)C(F)(F)F: the activity coefficient is, setting by setting: (318.15 K) 110 ± 8; (328.15 K) 93.7 ± 6.4; (338.15 K) 83.6 ± 5.7; (348.15 K) 71.9 ± 4.9; (358.15 K) 64.4 ± 4.4; (368.15 K) 58.6 ± 4.

With `C1CCCC1` [cyclopentane] + C[N+]1(CCCO)CCOCC1.O=S(=O)([N-]S(=O)(=O)C(F)(F)F)C(F)(F)F, the activity coefficient by setting is: (318.15 K) 41 ± 2.8; (328.15 K) 34.7 ± 2.4; (338.15 K) 30.6 ± 2.1; (348.15 K) 27.2 ± 1.9; (358.15 K) 23.5 ± 1.6; (368.15 K) 21.4 ± 1.5.

Turning to `CCCCCCCCCC` [decane] + C[N+]1(CCCO)CCOCC1.O=S(=O)([N-]S(=O)(=O)C(F)(F)F)C(F)(F)F, the activity coefficient turned out to be 624 ± 43 (318.15 K); 543 ± 37 (328.15 K); 479 ± 33 (338.15 K); 419 ± 29 (348.15 K); 363 ± 25 (358.15 K); 328 ± 23 (368.15 K).

Consider `CCOCC` [diethyl ether] + C[N+]1(CCCO)CCOCC1.O=S(=O)([N-]S(=O)(=O)C(F)(F)F)C(F)(F)F, for which the activity coefficient stood at 4.94 ± 0.34 (318.15 K); 5 ± 0.34 (328.15 K); 5.05 ± 0.34 (338.15 K); 5.1 ± 0.35 (348.15 K); 5.14 ± 0.35 (358.15 K); 5.19 ± 0.35 (368.15 K).

Take `CC(C)OC(C)C` [diisopropyl ether] + C[N+]1(CCCO)CCOCC1.O=S(=O)([N-]S(=O)(=O)C(F)(F)F)C(F)(F)F: the activity coefficient is, setting by setting: (318.15 K) 17.3 ± 1.2; (328.15 K) 17.1 ± 1.2; (338.15 K) 16.9 ± 1.2; (348.15 K) 16.7 ± 1.1; (358.15 K) 16.5 ± 1.1; (368.15 K) 16.3 ± 1.1.

As for `CCCOCCC` [dipropyl ether] + C[N+]1(CCCO)CCOCC1.O=S(=O)([N-]S(=O)(=O)C(F)(F)F)C(F)(F)F, the activity coefficient runs as follows: (318.15 K) 20.1 ± 1.4; (328.15 K) 19.5 ± 1.3; (338.15 K) 18.9 ± 1.3; (348.15 K) 18.4 ± 1.3; (358.15 K) 17.9 ± 1.2; (368.15 K) 17.4 ± 1.2.

Regarding `CCO` [ethanol] + C[N+]1(CCCO)CCOCC1.O=S(=O)([N-]S(=O)(=O)C(F)(F)F)C(F)(F)F, the activity coefficient (318.15 K) was 1.4 ± 0.09; the activity coefficient (328.15 K) was found to be 1.37 ± 0.09; the activity coefficient (338.15 K) came to 1.34 ± 0.09; the activity coefficient (348.15 K) stood at 1.3 ± 0.08; the activity coefficient (358.15 K) came out at 1.28 ± 0.08; the activity coefficient (368.15 K) stood at 1.25 ± 0.08.

`CCOC(C)=O` [ethyl acetate] + C[N+]1(CCCO)CCOCC1.O=S(=O)([N-]S(=O)(=O)C(F)(F)F)C(F)(F)F: the activity coefficient came to 1.5 ± 0.1 (318.15 K); 1.56 ± 0.1 (328.15 K); 1.61 ± 0.11 (338.15 K); 1.66 ± 0.11 (348.15 K); 1.7 ± 0.11 (358.15 K); 1.77 ± 0.12 (368.15 K).

For the compound `CCc1ccccc1` [ethylbenzene] + C[N+]1(CCCO)CCOCC1.O=S(=O)([N-]S(=O)(=O)C(F)(F)F)C(F)(F)F, the activity coefficient was 7.33 ± 0.5 (318.15 K); 7.28 ± 0.5 (328.15 K); 7.22 ± 0.49 (338.15 K); 7.18 ± 0.49 (348.15 K); 7.13 ± 0.49 (358.15 K); 7.09 ± 0.48 (368.15 K).

`CCCCCCC` [heptane] + C[N+]1(CCCO)CCOCC1.O=S(=O)([N-]S(=O)(=O)C(F)(F)F)C(F)(F)F: the activity coefficient runs as follows: (298.15 K) 345 ± 24; (308.15 K) 280 ± 19; (318.15 K) 223 ± 15; (328.15 K) 192 ± 13; (338.15 K) 162 ± 11; (348.15 K) 141 ± 10. Moreover, the activity coefficient was determined as 116 ± 8 (358.15 K) and 105 ± 7 (368.15 K).
